Converted amounts (≈) assume the structure as drawn. Like-named read-outs stand apart in the source and are kept apart here.
How the values were obtained:
Solubility = type: physicochemical
[1] = tested on: Staphylococcus aureus V41; type: cell-based
[2] = tested on: Staphylococcus aureus X400; type: cell-based; conditions: agar-dilution, 24 hours
[3] = tested on: Staphylococcus epidermidis EPI1; type: cell-based; conditions: EPI1, 24 h
[4] = tested on: Staphylococcus epidermidis 222; type: cell-based; conditions: agar-dilution, 24 hours
[5] = tested on: Streptococcus pyogenes C203; type: cell-based; conditions: agar-dilution, 24 hours
[6] = tested on: Streptococcus pneumoniae Park I; type: cell-based; conditions: 24 h
[7] = tested on: Streptococcus sp. Group D X66; type: cell-based
[8] = tested on: Streptococcus sp. Group D 9960; type: cell-based; conditions: agar-dilution, 24 hours
[9] = tested on: Haemophilus influenzae C.L.; type: cell-based; conditions: agar-dilution, 24 hours
[10] = tested on: Haemophilus influenzae 76; type: cell-based; conditions: agar-dilution, 24 hours
physchem = conditions: 66% dimethylformamide in water
Trichomonas vaginalis = test: Tube-dilution test, Trichomonas vaginalis; type: cell-based; conditions: for MIC: Trichomonas vaginalis, tube-dilution test, T. vaginalis, read-out: minimal inhibitory concentration (MIC); for in vitro activity against Trichomonas vaginalis: in words
[11] = Acute toxicity in the mouse, IP; conditions: in vivo
[12] = tested on: Maryland B influenza virus; test: In vitro antiviral activity, Maryland B influenza virus; type: cell-based; conditions: in words
Eimeria tenella = test: In vitro activity against Eimeria tenella; type: cell-based; conditions: in words
mosquito = test: Mosquito larvicide activity; type: in vivo; conditions: in words
[13] = tested on: Staphylococcus aureus 3055; test: Disc-plate screening; type: cell-based; conditions: benzylpenicillin-susceptible, read-out: Zone Diameter
Protocol: (§1) Agar plates, inoculated with the test organism, were used; 6 mm. discs (0.02 ml. capacity) were saturated from log 2 dilutions of the antibiotic solution. Disc content was 1/5 or 1/50 of the concentration of the solution used, i.e., disc content of […] 30 μg. was obtained from a solution of 1500 μg./ml. concentration.

[14] = tested on: Staphylococcus aureus 3074; test: Disc-plate screening; type: cell-based; conditions: benzylpenicillin resistant, read-out: Zone Diameter
Protocol: as §1

[15] = tested on: Staphylococcus aureus 3130; test: Disc-plate screening; type: cell-based; conditions: benzylpenicillin resistant, methicillin resistant, read-out: Zone Diameter
Protocol: as §1

[16] = tested on: Streptococcus pyogenes C203; test: Disc-plate screening; type: cell-based; conditions: read-out: Zone Diameter
Protocol: as §1

[17] = tested on: Staphylococcus aureus 3055; test: Agar-dilution screening (ICS); type: cell-based; conditions: benzylpenicillin-susceptible
[18] = tested on: Staphylococcus aureus 3074; test: Agar-dilution screening (ICS); type: cell-based; conditions: benzylpenicillin resistant
Aeromonas liquefaciens = test: In vitro MIC, bacteria pathogenic to animals; type: cell-based; conditions: Aeromonas hydrophila
Protocol: (§2) Antibiotic A-33853 was also tested in vitro to determine the MIC in μg./ml. against a number of bacterial organisms pathogenic to animals.

[19] = tested on: Bordetella bronchiseptica; test: In vitro MIC, bacteria pathogenic to animals; type: cell-based
Protocol: as §2

Escherichia coli = test: In vitro MIC, bacteria pathogenic to animals; type: cell-based
Protocol: as §2

Mycoplasma gallisepticum = test: In vitro MIC, bacteria pathogenic to animals; type: cell-based; conditions: Mycoplasmoides gallisepticum
Protocol: as §2

Mycoplasma hyopneumoniae = test: In vitro MIC, bacteria pathogenic to animals; type: cell-based; conditions: Mesomycoplasma hyopneumoniae
Protocol: as §2

Mycoplasma hyorhinis = test: In vitro MIC, bacteria pathogenic to animals; type: cell-based
Protocol: as §2

Mycoplasma synoviae = test: In vitro MIC, bacteria pathogenic to animals; type: cell-based; conditions: Mycoplasmopsis synoviae
Protocol: as §2

[20] = tested on: Pasteurella multocida (bovine); test: In vitro MIC, bacteria pathogenic to animals; type: cell-based
Protocol: as §2

[21] = tested on: Pasteurella multocida (turkey); test: In vitro MIC, bacteria pathogenic to animals; type: cell-based
Protocol: as §2

Pseudomonas (animal) = test: In vitro MIC, bacteria pathogenic to animals; type: cell-based
Protocol: as §2

Pseudomonas (fish) = test: In vitro MIC, bacteria pathogenic to animals; type: cell-based
Protocol: as §2

Salmonella dublin = test: In vitro MIC, bacteria pathogenic to animals; type: cell-based; conditions: Salmonella enterica
Protocol: as §2

Staphylococcus sp. = test: In vitro MIC, bacteria pathogenic to animals; type: cell-based
Protocol: as §2

Streptococcus sp. = test: In vitro MIC, bacteria pathogenic to animals; type: cell-based
Protocol: as §2

Salmonella typhosa SA12 = test: Agar-dilution screening (ICS); conditions: Salmonella enterica
[22] = 66 percent aqueous dimethylformamide
[23] = alkaline solutions and most organic solvents

Question: Which results are given for `CC(=O)Oc1cccnc1C(=O)N(C(C)=O)c1c(OC(C)=O)cccc1-c1nc2c(C(=O)O)cccc2o1` [triacetyl derivative]?
Answer: solubility (Solubility; [23]): soluble; solubility (Solubility; hydrocarbon solvents and water): insoluble; MIC ([1]; V41, agar-dilution, 24 hours, read-out: MIC): 32 µg/mL (≈ 61.8 µM); MIC [2]: 64 µg/mL (≈ 124 µM); MIC ([3]; read-out: MIC): 16 µg/mL (≈ 30.9 µM); MIC [4]: 4 µg/mL (≈ 7.73 µM); MIC [5]: 8 µg/mL (≈ 15.5 µM); MIC [6]: 32 µg/mL (≈ 61.8 µM); MIC ([7]; agar-dilution, 24 hours, read-out: MIC): > 128 µg/mL; MIC [8]: > 128 µg/mL; MIC [9]: 4 µg/mL (≈ 7.73 µM); MIC [10]: 64 µg/mL (≈ 124 µM); pKa (physchem; pH 4.7, pKa): 6.85

Question: What does the source list for `O=C(Nc1c(O)cccc1-c1nc2c(C(=O)O)cccc2o1)c1ncccc1O` [A-33853, 2-[3-hydroxy-2-[[(3-hydroxy-2-pyridinyl)carbonyl]amino]phenyl]-4-benzoxazolecarboxylic acid]?
Answer: solubility (Solubility; acetone, methanol, ethyl acetate, tetrahydrofuran, chloroform, and water): less soluble; solubility (Solubility; organic solvent or mixture, soluble in dimethylsulfoxide, pyridine, and 0.1 N sodium hydroxide, read-out: solubility): ≥ 5000 µg/mL; MIC (Trichomonas vaginalis): < 0.975 µg/mL; in vitro activity against Trichomonas vaginalis (Trichomonas vaginalis): active in vitro; LD50 [11]: > 300 mg/kg; growth inhibition / activity in vitro [12]: inhibits the growth in vitro; in vitro activity against Eimeria tenella (Eimeria tenella): active in vitro; mosquito larvicide activity (mosquito): active as a mosquito larvicide; zone of inhibition at 30 µg/disc ([13]; 30 μg./disc): 10 mm; zone of inhibition at 300 µg/disc ([13]; 300 μg./disc): 11 mm; zone of inhibition at 30 µg/disc ([14]; 30 μg./disc): 10.4 mm; zone of inhibition at 300 µg/disc ([14]; 300 μg./disc): 11.6 mm; zone of inhibition at 30 µg/disc ([15]; 30 μg./disc): 13.2 mm; zone of inhibition at 300 µg/disc ([15]; 300 μg./disc): 13.4 mm; zone of inhibition at 30 µg/disc ([16]; 30 μg./disc): 0 mm; zone of inhibition at 300 µg/disc ([16]; 300 μg./disc): 8 mm; MIC [17]: 2 µg/mL (≈ 5.11 µM); MIC [18]: 2 µg/mL (≈ 5.11 µM); MIC (Aeromonas liquefaciens): 3.12 µg/mL (≈ 7.97 µM); MIC [19]: > 50 µg/mL; MIC (Escherichia coli): > 50 µg/mL; MIC (Mycoplasma gallisepticum): 1.56 µg/mL (≈ 3.99 µM); MIC (Mycoplasma hyopneumoniae): < 0.78 µg/mL; MIC (Mycoplasma hyorhinis): 1.56 µg/mL (≈ 3.99 µM); MIC (Mycoplasma synoviae): 1.56 µg/mL (≈ 3.99 µM); MIC [20]: 1.56 µg/mL (≈ 3.99 µM); MIC [21]: 6.25 µg/mL (≈ 16 µM); MIC (Pseudomonas (animal)): > 50 µg/mL; MIC (Pseudomonas (fish)): 50 µg/mL (≈ 128 µM); MIC (Salmonella dublin): > 50 µg/mL; MIC (Staphylococcus sp.): 3.12 µg/mL (≈ 7.97 µM); MIC (Streptococcus sp.): 6.25 µg/mL (≈ 16 µM); pKa (physchem; pH 5, pKa (first titratable group)): ~7.25; pKa (physchem; pH 5, pKa (second titratable group)): ~10; pKa (physchem; pH 5, pKa (third titratable group)): ~12.2; MIC (Salmonella typhosa SA12): 2 µg/mL (≈ 5.11 µM)

Question: Which solubility (Solubility; [23]) does the source give for `CC(=O)Oc1cccnc1C(=O)Nc1c(OC(C)=O)cccc1-c1nc2c(C(=O)O)cccc2o1` [diacetyl derivative] here?
Answer: soluble

Question: What about the solubility (Solubility; hydrocarbon solvents and water) of the same compound?
Answer: insoluble

Question: And the MIC ([1]; V41, 24 h)?
Answer: 16 µg/mL (≈ 33.7 µM)

Question: And the MIC [2]?
Answer: 16 µg/mL (≈ 33.7 µM)

Question: What about the MIC [3] of the same compound?
Answer: 8 µg/mL (≈ 16.8 µM)

Question: And the MIC [4]?
Answer: 4 µg/mL (≈ 8.41 µM)

Question: And the MIC [5]?
Answer: 8 µg/mL (≈ 16.8 µM)

Question: And the MIC [6]?
Answer: 8 µg/mL (≈ 16.8 µM)

Question: And the MIC ([7]; 24 h)?
Answer: > 128 µg/mL

Question: And the MIC [8]?
Answer: > 128 µg/mL

Question: And the MIC [9]?
Answer: 4 µg/mL (≈ 8.41 µM)

Question: And the MIC [10]?
Answer: 64 µg/mL (≈ 135 µM)

Question: And the pKa (physchem; pH 4.92, pKa)?
Answer: 6.8

Question: For `CC(=O)OC(=O)c1cccc2oc(-c3cccc(OC(C)=O)c3N(C(C)=O)C(=O)c3ncccc3OC(C)=O)nc12` [tetraacetyl A-33853, 2-[2-[acetyl[[3-(acetyloxy)-2-pyridinyl]carbonyl]amino]-3-(acetyloxy)phenyl]-4-benzoxazolecarboxylic acid, anhydride with acetic acid], which solubility (Solubility; acetone, methanol, ethyl acetate, tetrahydrofuran, water, dimethyl sulfoxide, 0.1 N aqueous NaOH, 0.1 N aqueous HCl) is on record?
Answer: insoluble, or only sparingly soluble

Question: And the solubility (Solubility; organic solvent or mixture, soluble in pyridine and chloroform, read-out: solubility)?
Answer: ≥ 1000 µg/mL

Question: What about the MIC (Trichomonas vaginalis) of the same compound?
Answer: 125 µg/mL (≈ 223 µM)

Question: What about the “in vitro activity against Trichomonas vaginalis” value (Trichomonas vaginalis) of the same compound?
Answer: active in vitro

Question: And the “growth inhibition / activity in vitro” value [12]?
Answer: active in vitro

Question: What about the titratable groups [22] of the same compound?
Answer: no titratable groups

Reference: patent publication US4431809A, “Antibiotic A-33853 derivatives” (Eli Lilly and Company, priority 1982, dated 1984)
